The results in this text go back to article PMC5338303, “Unveiling the Metabolic Changes on Muscle Cell Metabolism Underlying p-Phenylenediamine Toxicity” (Frontiers in Molecular Biosciences, 2017).

Molecules are shown by their SMILES. Values joined by “and” are separate entries in the source; they are usually repeats but may differ in a detail not shown here. Equal values may be shown once.

The subject of series [1] is central carbon metabolic pathways of C2C12 cells. Put plainly: Mass isotopomer distribution analysis (MIDA) with [1,2-13C2]-glucose, GC/MS. The format is cell-based, Mus musculus mouse. On the procedure:
To track and measure the substrate carbon flux through central carbon metabolic pathways of C2C12 cells when treated with PPD, mass isotopomer distribution analysis (MIDA), and metabolic modeling approaches were used.
(§1) Cells were cultured in DMEM (Biowithaker) °supplemented with 10% dialyzed heat-inactivated Fetal Bovine Serum (FBS), glucose (10 mM, 50% isotope enrichment [1,2-^13C2]-glucose), asparagine (20 mg/ml), penicillin (100 U/ml), and streptomycin (100 μg/ml). […] Initially each flask contained 10^6 cells and the incubation was carried out for 24 h. To separate medium and cell pellets, cells were centrifuged at the end of incubation (3000 × g, 5 min). Afterwards, pellet and medium were stored at −20°C for metabolite isolations.
• Glucose. A mixed DOWEX 50-DOWEX 1 ionic exchange column was used to corroborate that the original medium contained 50% of labeled glucose ([1,2-^13C2] D-glucose). First, 500 μl of medium and after 6 ml of milliQ water were passed through the column and were collected into a glass tube. Next, it was lyophilized for 12 h to eliminate the remaining liquid and the dried sample was stored. Finally, hydroxyl-amine in pyridine and acetic anhydride were used to derivatize glucose to its aldonitrile form. The ion cluster was set to m/z 328 (C1–C6, chemical ionization; Wamelink et al., [2008]). • Glycogen. Glycogen for biochemical and isotopomerics distribution determination was extracted as described in Burchert ([2007]), by direct digestion of sonicated extracts with amyloglucosidase. Measurement of glucose released from glycogen was done by using the isotopomer [U-13C6-1,2,3,4,5,6,6-D7]D-glucose (or [U-13C-D7]-glucose as shorter name) as recovery standard and internal standard quantification procedures. […] We monitored the ion cluster around the m/z 328 (C1–C6, chemical ionization; Wamelink et al., [2008]). • Lactate. […] Next, the m/z 328 was monitored (C1–C3, chemical ionization, Wamelink et al., [2008]). • Ribose from RNA. […]

The subject of series [2] is Wistar female rats. Put plainly: Serum biochemical parameters (AST, ALT, CK, LDH). The format is in vivo, rat. Particulars: 40 and 60 mg/kg. The procedure:
(§2) The animals were divided into groups of three rats at random. A control group receiving the vehicle and four groups receiving PPD at several concentrations 10, 20, 40, and 60 mg/kg at single dose were included (Figure 1). The compound was administered in a volume of 300 μl of 100% DMSO by gavage. Animals were evaluated based on general appearance, behavior and signs of morbidity using the Irwin test (Castagné et al., [2012]), immediately following administration, 30 min, 1, 2, 4, and 8 h after the administration (Figure 1). All of the animals were weighed just before the acclimatization period, before administration and 24, 48, and 72 h after administration. At the end of the observation period (24, 48, and 72 h after administration), all the animals were anesthetized and blood samples were collected from tail and retro orbital sinus and centrifuged at 2000 × g for 30 min at 4°C to recover the serum (Figure 1). The serum was frozen and stored at −20°C until determination of biochemical parameters such as urea, creatinin, Glucose, aspartate aminotransferase (AST), alanine aminotransferase (ALT) and creatine kinase (CK), lactate dehydrogenase (LDH), at 24, 48, and 72 h before sacrificed in a CO2 chamber and autopsied. All of the tissues were observed grossly. Ovaries, kidneys, liver, spleen, heart, and lung were weighed and the relative organ weights were calculated. Serum CK and LDH levels were measured.

Another series relates to C2C12 cells. As to the kind of experiment: Biochemical characterization: glucose and lactate concentrations in culture medium. Format: cell-based, Mus musculus mouse. Particulars: PPD at IC50, 24 h. The procedure: Glucose and lactate concentrations were determined from culture medium at initial and end-time points by using Cobas Mira Plus chemistry analyzer (HORIBA ABX, Montpellier, France; Cisternas et al., [2016]).
as §1

In series [3] the test system is Wistar female rats. As to the kind of experiment: Blood packed cell volume, hemoglobin, organ weights and histology. The format is in vivo, rat. The procedure: as §2

On to `Nc1ccc(N)cc1` [PPD, p-phenylenediamine], for which, in series [1] (24 h, no significant differences between groups), the total glycogen reservoirs is on record as 10,1 μg. In series [1] (PPD at IC50, 24 h, not significantly different from control), the “Glycolitic rate = [Δlactate × m2lactate]/[Δglucose × m2glucose]” value was 28,8 ± 14%. For the same compound, in series [1] (RNA ribose, PPD at IC50, 24 h), the “ox/non-ox ratio of pentose-phosphate pathway = m1 + m3 / (m2 + m3 + 2m4)” value was 2,224 ± 0,189 and 2.224 ± 0.189. In addition, in the series with Wistar female rats [2] (24, 48 and 72 h), the ALT in serum result was “increased” and the AST in serum result was “increased”. For the same compound, in the series on Wistar female rats [2] (24 h), the CK in serum entry is given as “increased” and the LDH in serum result is on record as “increased”. Moreover, in the series with C2C12 cells, the “glucose consumption (Δglucose)” value is 2,42 ± 0,26 mM and the “lactate production (Δlactate)” value is 1,5 ± 0,3 mM. Also, the organs weight entry in the series with Wistar female rats [3] (48 and 72 h, any condition) is on record as “No significant differences”. Moreover, in the series on Wistar female rats [3] (any condition (10-60 mg/kg)), the “Blood packed cell volume” value is “No significant differences” and the hemoglobin levels result was “No significant differences”. In addition, the “Histological analysis of extracted organs” value in the series with Wistar female rats [3] (vs controls) was “patterns similar to controls”.
